In PubChem BioAssay (NCI) one finds GI50 and TGI data, which are given here for five compounds.

Where “and” joins values, the source holds several entries; their conditions need not be identical. Identical values can stand only once.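 Grown in 96-well plates, cells were treated for 48 hours with each compound at five concentrations. Insufficient inhibition: endpoint recorded as highest concentration tested. GI50 = concentration required for 50% inhibition of growth. TGI is the concentration that stops growth completely.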

Among the test systems are SW-620 colon; SK-MEL-28 melanoma; SNB-75 CNS; U251 CNS; UO-31 renal; HCT-116 colon; SR leukemia; OVCAR-8 ovarian; TK-10 renal; UACC-257 melanoma.
Common to all, as to test: inhibition of tumour cell growth, NCI panel, 48 h

For the compound `COc1cc(/C=C/C(=O)c2cc(F)c(Cl)cc2Cl)cc(OC)c1OC`, the GI50 is 31.9 µM with SW-620 colon; 32 µM in the assay on SK-MEL-28 melanoma; 56.3 µM in the assay on SNB-75 CNS; 29.3 µM in the assay with U251 CNS; 16.3 µM in the assay on UO-31 renal; 12.6 µM in the assay with HCT-116 colon. In addition, the GI50 in the assay on SR leukemia was 5.23 µM; in the assay on OVCAR-8 ovarian it was 15.8 µM; in the assay with TK-10 renal it was 31 µM; with UACC-257 melanoma, 42 µM. Also, the TGI in the assay on SW-620 colon was > 100 µM; in the assay with SK-MEL-28 melanoma it was > 100 µM; in the assay on SNB-75 CNS it was > 100 µM; with U251 CNS, > 100 µM; in the assay on UO-31 renal, 32.8 µM; in the assay with HCT-116 colon, 25.1 µM. Further, the TGI in the assay with SR leukemia is 39.1 µM; in the assay on OVCAR-8 ovarian, 33.6 µM; in the assay on TK-10 renal, > 100 µM; in the assay on UACC-257 melanoma it was > 100 µM.
As for `CO[C@H]1[C@H](O)[C@H](O[C@H]2CC[C@@]3(C)[C@H](CC[C@@H]4[C@@H]3CC[C@]3(C)[C@@H](C5=CC(=O)OC5)CC[C@]43O)C2)O[C@@H](C)[C@@H]1O`, the TGI with SW-620 colon was 0.00341 µM; in the assay with SK-MEL-28 melanoma it was 0.00622 µM and < 0.0227 µM; with SNB-75 CNS it was 0.0114 µM and 0.0737 µM; in the assay with U251 CNS, 0.00385 µM and 0.0152 µM; in the assay with UO-31 renal, 0.00201 µM; in the assay with HCT-116 colon, 0.00229 µM and < 0.0113 µM. The TGI is 0.0273 µM with SR leukemia; 0.00572 µM and 0.0113 µM in the assay on OVCAR-8 ovarian; 0.00345 µM in the assay with TK-10 renal; 0.00571 µM and < 0.0137 µM in the assay on UACC-257 melanoma. In addition, the GI50 in the assay with SNB-75 CNS was 0.00233 µM; in the assay with SR leukemia it was < 0.0001 µM.
In the case of `CC(CN)[C@@H]1CC[C@]2(CO)CC[C@]3(C)[C@H](CC[C@@H]4[C@@]5(C)CCC(NCCO)C(C)(C)[C@@H]5CC[C@]43C)[C@@H]12` (some centres not stated), the GI50 is 1.71 µM with SW-620 colon; 1.87 µM in the assay on SK-MEL-28 melanoma; 1.3 µM in the assay with SNB-75 CNS; 1.6 µM with U251 CNS; 2.43 µM in the assay with UO-31 renal; 1.66 µM with HCT-116 colon. The GI50 in the assay on SR leukemia was 1.94 µM; in the assay with OVCAR-8 ovarian it was 1.69 µM; in the assay with TK-10 renal it was 1.81 µM; in the assay on UACC-257 melanoma, 1.73 µM. For the same compound, the TGI came to 3.26 µM with SW-620 colon; 3.43 µM in the assay with SK-MEL-28 melanoma; 3.12 µM in the assay on SNB-75 CNS; 2.95 µM in the assay on U251 CNS; 9.57 µM with UO-31 renal; 3.41 µM with HCT-116 colon. The TGI was 4.95 µM in the assay on SR leukemia, 3.28 µM in the assay on OVCAR-8 ovarian, 3.88 µM in the assay with TK-10 renal and 3.15 µM in the assay with UACC-257 melanoma.
With `CN1CCN(c2ccc(-c3cnc4c(-c5csc6ccccc56)cnn4c3)cc2)CC1`, the GI50 with SW-620 colon was 3.73 µM; in the assay on SK-MEL-28 melanoma, > 15 µM; in the assay with SNB-75 CNS, > 15 µM; with U251 CNS it was 4.38 µM; in the assay with UO-31 renal, 10.3 µM; with HCT-116 colon, 3.15 µM. Besides, the GI50 in the assay with SR leukemia was 3.03 µM; in the assay on OVCAR-8 ovarian, 5.7 µM; in the assay with TK-10 renal it was 8.37 µM; in the assay with UACC-257 melanoma it was 13.8 µM. The TGI in the assay on SW-620 colon is 10.1 µM; in the assay with SK-MEL-28 melanoma, > 15 µM; in the assay with SNB-75 CNS, > 15 µM; in the assay with U251 CNS, > 15 µM; in the assay on UO-31 renal, > 15 µM; in the assay on HCT-116 colon, > 15 µM. For the same compound, the TGI in the assay on SR leukemia, in the assay with OVCAR-8 ovarian, with TK-10 renal and in the assay on UACC-257 melanoma was > 15 µM throughout.
On to `Nc1ccn([C@H]2C[C@@H](O)[C@@H](CO)S2)c(=O)n1`, for which the GI50 with SW-620 colon is > 70.1 µM; in the assay with SK-MEL-28 melanoma, > 100 µM; with SNB-75 CNS it was > 44 µM; in the assay on U251 CNS, > 100 µM; in the assay on UO-31 renal, 23.6 µM; in the assay with HCT-116 colon, 14.1 µM. Also, the GI50 in the assay on SR leukemia is > 100 µM; in the assay with OVCAR-8 ovarian it was 11.2 µM; in the assay with TK-10 renal it was > 100 µM; in the assay on UACC-257 melanoma, > 100 µM. Moreover, the TGI in the assay with SW-620 colon, with SK-MEL-28 melanoma, in the assay with SNB-75 CNS, in the assay with U251 CNS, in the assay with UO-31 renal and in the assay with HCT-116 colon was > 100 µM in each case. Moreover, the TGI in the assay on SR leukemia, in the assay on OVCAR-8 ovarian, in the assay on TK-10 renal and in the assay with UACC-257 melanoma was > 100 µM in each case.
